From patent publication US20260130933A1, “PHARMACEUTICAL COMPOSITION FOR PREVENTION OR TREATMENT OF NEPHROPATHY AND/OR DIABETES MELLITUS, COMPRISING ENAVOGLIFLOZIN” (DAEWOONG PHARMACEUTICAL CO., LTD., priority 2022, published 2026)

Test: Example 2: phase 3 trial, enavogliflozin 0.3 mg vs dapagliflozin 10 mg once a day for 24 weeks added to metformin in patients with type 2 diabetes (same efficacy, exploratory and safety endpoints)
Format: in vivo, human
Conditions: for fasting Total cholesterol, Mean (SD) / fasting Total cholesterol, Median / Change from baseline in Total cholesterol, ANCOVA LS mean (SE) / Change from baseline in Total cholesterol, Mean (SD) / Change from baseline in total cholesterol, Median: modified per-protocol set 1; for fasting Total cholesterol, Mean (SD) / fasting Total cholesterol, Median / Change from baseline in FPG, ANCOVA LS mean (SE) / Change from baseline in FPG, Mean (SD) / Change from baseline in FPG, Median / Change from baseline in HbA1c, ANCOVA LS mean (SE) / Change from baseline in HbA1c, Mean (SD) / Change from baseline in HbA1c, Median / Change from baseline in body weight, ANCOVA LS mean (SE) / Change from baseline in body weight, Mean (SD) / Change from baseline in body weight, Median / Change from baseline in fasting c-peptide, ANCOVA LS mean (SE) / Change from baseline in fasting c-peptide, Mean (SD) / Change from baseline in fasting c-peptide, Median / FPG, Mean (SD) / FPG, Median / HbA1c, Mean (SD) / HbA1c, Median / Subjects achieving HbA1c target of <6.5%, (%) / Subjects achieving therapeutic glycemic response, (%) / body weight, Mean (SD) / body weight, Median / fasting c-peptide, Mean (SD) / fasting c-peptide, Median / Change from baseline in Total cholesterol, ANCOVA LS mean (SE) / Change from baseline in Total cholesterol, Mean (SD) / Change from baseline in total cholesterol, Median: enavogliflozin 0.3 mg, dapagliflozin 10 mg; for Change from baseline in FPG, ANCOVA LS mean (SE) / Change from baseline in FPG, Mean (SD) / Change from baseline in FPG, Median / Change from baseline in HbA1c, ANCOVA LS mean (SE) / Change from baseline in HbA1c, Mean (SD) / Change from baseline in HbA1c, Median / Change from baseline in body weight, ANCOVA LS mean (SE) / Change from baseline in body weight, Mean (SD) / Change from baseline in body weight, Median / Change from baseline in fasting c-peptide, ANCOVA LS mean (SE) / Change from baseline in fasting c-peptide, Mean (SD) / Change from baseline in fasting c-peptide, Median / FPG, Mean (SD) / FPG, Median / HbA1c, Mean (SD) / HbA1c, Median / Subjects achieving HbA1c target of <6.5%, (%) / Subjects achieving therapeutic glycemic response, (%) / body weight, Mean (SD) / body weight, Median / fasting c-peptide, Mean (SD) / fasting c-peptide, Median: per-protocol set
Description: Subjects who met the inclusion/exclusion criteria were administered a placebo of the clinical trial drug under single-blind (subject blinding) conditions during a 2-week run-in period while continuing to receive metformin. […] The randomized subjects were administered two tablets of the clinical trial drug for each administration group once a day, and then visited the institution at weeks 6, 12, 18, and 24 during the 24-week administration period to conduct efficacy and safety evaluations.
• 1. Change in HbA1c at week 24 after administration of clinical trial drug compared to Visit 2 (randomization)
• 1. Change in HbA1c at each time point of weeks 6, 12, and 18 after administration of clinical trial drug compared to Visit 2 (randomization) • 2. Change in FPG at each time point of weeks 6, 12, 18, and 24 after administration of clinical trial drug compared to Visit 2 (randomization) • 3. Proportion of subjects achieving HbA1c<7% at each time point of weeks 6, 12, 18, and 24 after administration of clinical trial drug • 4. Proportion of subjects achieving HbA1c<6.5% at each time point of weeks 6, 12, 18, and 24 after administration of clinical trial drug • 5. Proportion of subjects achieving therapeutic response (HbA1c change (HbA1c at Visit 2-HbA1c at each evaluation time point)>0.5% or HbA1c<7% at each evaluation time point compared to Visit 2 (randomization)) at each time point of weeks 6, 12, 18 and 24 after administration of clinical trial drug
• 1. Change in fasting c-peptide at each time point of weeks 6, 12, 18, and 24 after administration of clinical trial drug compared to Visit 2 (randomization) • 2. Change in body weight at each time point of weeks 6, 12, 18, and 24 after administration of clinical trial drug compared to Visit 2 (randomization) • 3. Change in fasting lipid concentration (total cholesterol, LDL-C, HDL-C, and triglycerides) at each time point of weeks 6, 12, 18, and 24 after administration of clinical trial drug compared to Visit 2 (randomization) • 4. Changes in systolic or diastolic blood pressure at each time point of weeks 6, 12, 18, and 24 after administration of clinical trial drug compared to Visit 2 (randomization) • 5. Changes in β-cell function and insulin resistance measured by HOMA-β and HOMA-IR at each time point of weeks 6, 12, 18, and 24 after administration of clinical trial drug compared to Visit 2 (randomization) • 6. Changes in renal function-related indicators (UACR, UGCR) measured by UACR at each time point of weeks 6, 12, 18, and 24 after administration of clinical trial drug compared to Visit 2 (randomization) • 7. Changes in obesity-related indicators (adiponectin, leptin) at each time point of weeks 6, 12, 18, and 24 after administration of clinical trial drug compared to Visit 2 (randomization)

[1] = week 24, listed as dapagliflozin

## CCOc1ccc(Cc2cc([C@@H]3O[C@H](CO)[C@@H](O)[C@H](O)[C@H]3O)ccc2Cl)cc1 [Dapagliflozin, reference compound]
Week 12
  fasting Total cholesterol, Mean (SD): 143.19(28.59) mg/dL
  fasting Total cholesterol, Median: 138.00 mg/dL
  Change from baseline in FPG, ANCOVA LS mean (SE): -30.11 mg/dL
  Change from baseline in FPG, Mean (SD): -31.89 mg/dL
  Change from baseline in FPG, Median: -23.50 mg/dL
  Change from baseline in HbA1c, ANCOVA LS mean (SE): −0.79 % p
  Change from baseline in HbA1c, Mean (SD): −0.74 % p
  Change from baseline in HbA1c, Median: −0.66 % p
  Change from baseline in body weight, ANCOVA LS mean (SE): −2.63(0.23) kg
  Change from baseline in body weight, Mean (SD): −2.61(1.66) kg
  Change from baseline in body weight, Median: -2.55 kg
  Change from baseline in fasting c-peptide, ANCOVA LS mean (SE): −0.09(0.02) ng/mL
  Change from baseline in fasting c-peptide, Mean (SD): −0.08(0.18) ng/mL
  Change from baseline in fasting c-peptide, Median: -0.10 ng/mL
  FPG, Mean (SD): 117.78 mg/dL
  FPG, Median: 116.50 mg/dL
  HbA1c, Mean (SD): 6.94%
  HbA1c, Median: 6.83%
  Subjects achieving HbA1c target of <6.5%, (%): (26.14) %
  Subjects achieving therapeutic glycemic response, (%): (79.55) %
  body weight, Mean (SD): 68.19(11.65) kg
  body weight, Median: 66.90 kg
  fasting c-peptide, Mean (SD): 0.66(0.23) ng/mL
  fasting c-peptide, Median: 0.65 ng/mL
Week 18
  FPG change from baseline, LS mean (SE): −31.13(1.63) mg/dL
  HOMA-IR change from baseline, LS mean (SE): −1.47(0.12)
  HOMA-β change from baseline, LS mean (SE): 13.49(3.08)
  HbA1c change from baseline, LS mean (SE): −0.70(0.06) % p
  LDL-C change from baseline, LS mean (SE): 2.58(1.89) mg/dL
  Subjects achieving HbA1c target of <7%: (57.47) %
  Subjects achieving HbA1c<6.5%: 25.29%
  Subjects achieving therapeutic response (HbA1c change >0.5% or HbA1c<7%): 73.56%
  UACR change from baseline, LS mean (SE): −12.95(5.11) g/kg
  diastolic blood pressure change from baseline, LS mean (SE): −4.10(0.81) mmHg
  fasting c-peptide change from baseline, LS mean (SE): −0.06(0.19) ng/ml
  leptin change from baseline, LS mean (SE): −1.23(0.53) ng/mL
  Change from baseline in Total cholesterol, ANCOVA LS mean (SE): 9.57(2.20) mg/dL
  Change from baseline in Total cholesterol, Mean (SD): 10.18(22.74) mg/dL
  Change from baseline in total cholesterol, Median: 9.00 mg/dL
  fasting Total cholesterol, Mean (SD): 148.48(30.10) mg/dL
  fasting Total cholesterol, Median: 151.50 mg/dL
  Change from baseline in FPG, ANCOVA LS mean (SE): -31.13 mg/dL
  Change from baseline in FPG, Mean (SD): -32.55 mg/dL
  Change from baseline in FPG, Median: -26.00 mg/dL
  Change from baseline in HbA1c, ANCOVA LS mean (SE): −0.70 % p
  Change from baseline in HbA1c, Mean (SD): −0.66 % p
  Change from baseline in HbA1c, Median: −0.61 % p
  Change from baseline in body weight, ANCOVA LS mean (SE): −3.16(0.26) kg
  Change from baseline in body weight, Mean (SD): −3.19(1.93) kg
  Change from baseline in body weight, Median: -3.00 kg
  Change from baseline in fasting c-peptide, ANCOVA LS mean (SE): −0.06(0.02) ng/mL
  Change from baseline in fasting c-peptide, Mean (SD): −0.06(0.19) ng/mL
  Change from baseline in fasting c-peptide, Median: -0.03 ng/mL
  FPG, Mean (SD): 116.53 mg/dL
  FPG, Median: 115.00 mg/dL
  HbA1c, Mean (SD): 7.02%
  HbA1c, Median: 6.90%
  Subjects achieving HbA1c target of <6.5%, (%): (25.29) %
  Subjects achieving therapeutic glycemic response, (%): (73.56) %
  body weight, Mean (SD): 67.54(11.96) kg
  body weight, Median: 67.00 kg
  fasting c-peptide, Mean (SD): 0.69(0.24) ng/mL
  fasting c-peptide, Median: 0.66 ng/mL
Week 18, listed as dapagliflozin
  Subjects achieving HbA1c target of <7%: 57.47%
Week 24
  FPG change from baseline, LS mean (SE): −29.14(1.82) mg/dL
  HOMA-IR change from baseline, LS mean (SE): −1.31(0.14)
  HOMA-β change from baseline, LS mean (SE): 11.93(3.25)
  HbA1c change from baseline, LS mean (SE): −0.75 % p
  HbA1c change from baseline, Mean (SD): −0.71 % p
  HbA1c, Mean: 6.97%
  LDL-C change from baseline, LS mean (SE): 0.93(1.98) mg/dL
  Subjects achieving HbA1c target of <7%: (62.22) %
  Subjects achieving HbA1c<6.5%: 27.78%
  Subjects achieving therapeutic response (HbA1c change >0.5% or HbA1c<7%): 75.56%
  UACR change from baseline, LS mean (SE): −17.37(3.48) g/kg
  UGCR change from baseline, LS mean (SE): 44.94(2.18) mg/mg
  diastolic blood pressure change from baseline, LS mean (SE): −4.26(0.67) mmHg
  fasting c-peptide change from baseline, LS mean (SE): −0.04(0.26) ng/ml
  leptin change from baseline, LS mean (SE): −1.28(0.53) ng/mL
  Change from baseline in Total cholesterol, ANCOVA LS mean (SE): 6.74(2.30) mg/dL
  Change from baseline in Total cholesterol, Mean (SD): 9.15(22.59) mg/dL
  Change from baseline in total cholesterol, Median: 10.00 mg/dL
  fasting Total cholesterol, Mean (SD): 147.02(27.55) mg/dL
  fasting Total cholesterol, Median: 145.00 mg/dL
  Change from baseline in FPG, ANCOVA LS mean (SE): -29.14 mg/dL
  Change from baseline in FPG, Mean (SD): -31.42 mg/dL
  Change from baseline in FPG, Median: -24.00 mg/dL
  Change from baseline in body weight, ANCOVA LS mean (SE): −3.58(0.34) kg
  Change from baseline in body weight, Mean (SD): −3.60(2.14) kg
  Change from baseline in body weight, Median: -3.40 kg
  Change from baseline in fasting c-peptide, ANCOVA LS mean (SE): −0.04(0.02) ng/mL
  Change from baseline in fasting c-peptide, Mean (SD): −0.04(0.26) ng/mL
  Change from baseline in fasting c-peptide, Median: -0.07 ng/mL
  FPG, Mean (SD): 117.91 mg/dL
  FPG, Median: 116.50 mg/dL
  Subjects achieving HbA1c target of <6.5%, (%): (27.78) %
  Subjects achieving therapeutic glycemic response, (%): (75.56) %
  body weight, Mean (SD): 66.92(11.89) kg
  body weight, Median: 66.05 kg
  fasting c-peptide, Mean (SD): 0.70(0.30) ng/mL
  fasting c-peptide, Median: 0.66 ng/mL
[1]
  HbA1c change from baseline, LS mean (SE): −0.75(0.06) % p
  HbA1c change from baseline, Mean (SD): −0.71(0.76) % p
  Subjects achieving HbA1c target of <7%: 62.22%
